This note sets out measurements from patent US6867284B1, “Peptide inhibitors of hepatitis C virus NS3 protease” (Istituto di Ricerche di Biologia Molecolare P. Angeletti …, priority 1998, dated 2005).

pIC50: −log10 of the molar value. Numbered stars: 1 amine (or outer) side, 2 acyl side, 3 side chain; on linkers, the order of the positions; unused ones are H or OH. Square brackets hold non-standard residues; d marks the D form. Peptide text beside a SMILES is read from it. * marks the point of attachment. ξ: configuration not given here. ξAbu(4,4-F2)ψ(COCO) = O=C(C(=O)[*:2])C(CC(F)F)N[*:1]; Dip = N[C@H](C(=O)O)C(c1ccccc1)c1ccccc1; Cha = N[C@@H](CC1CCCCC1)C(=O)O; X7 = O=C(c1nccs1)C(CC(F)F)N*; X9 = O=C(O)CC(CC(F)F)N*

T1 sequence (P26663 1027-1208, other chains not shown): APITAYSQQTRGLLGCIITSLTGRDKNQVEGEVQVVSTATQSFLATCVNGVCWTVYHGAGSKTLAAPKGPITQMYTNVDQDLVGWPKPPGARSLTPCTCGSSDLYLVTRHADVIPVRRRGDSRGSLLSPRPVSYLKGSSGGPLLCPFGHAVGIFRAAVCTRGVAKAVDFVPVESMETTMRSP

One assay addresses T1, HCV NS3 protease (Hepatitis C virus genotype 1b, UniProt P26663).
T1 construct: an NS3/4A complex comprising the NS3 protease domain
The experiment in a line: Inhibition of NS3 protease (HPLC cleavage assay, NS3/4A complex with Pep4AK, substrate peptide 4AB).
Settings: not given
Type of assay: biochemical. The method, then: Buffer solutions containing 80 μM Pep4AK were preincubated for 10 minutes with 10-200 nM protease and reactions were started by addition of substrate. Six duplicate data points at different substrate concentrations were used to calculate kinetic parameters. Incubation times were chosen in order to obtain <7% substrate conversion and reactions were stopped by addition of 40 μl 1% TFA. Cleavage of peptide substrates was determined by HPLC using a Merck-Hitachi chromatograph equipped with an autosampler. 80 μl samples were injected on a Lichrospher C18 reversed phase cartridge column (4×74 mm, 5 μm, Merck) and fragments were separated using a 10-40% acetonitrile gradient a 5%/min using a flow rate of 2.5 ml/min. Peak detection was accomplished by monitoring both the absorbance at 220 nm and tyrosine fluorescence (λex=260 nm, λem=305 nm). Cleavage products were quantitated by integration of chromatograms with respect to appropriate standards. Kinetic parameters were calculated from nonlinear least-squares fit of initial rates as a function of substrate concentration with the help of a Kaleidagraph software, assuming Michaelis-Menten kinetics.
Ki values of peptide inhibitors were calculated from substrate titration experiments performed in the presence of increasing amounts of inhibitor. Experimental data sets were simultaneously fitted to eq.1 using a multicurve fit macro with the help of a Sigmaplot software: V=(VmaxS)/(Km(1+[…])+S); (eq.1)
Alternatively, Ki values were derived from IC50 values, calculated using a four-parameter logistic function, according to eq.2: IC50−(1+S/Km)Ki (eq.2)
As usually defined, the pIC50 is −log10 of the IC50, conventionally taken in molar units. Take `CC(C)C[C@H](NC(=O)CC(CC(=O)O)c1ccccc1)C(=O)NC(CC(F)F)C(=O)C(=O)O` (mixture of isomers) [Compound 7j]: the pIC50 is 4.59.

The same assay, now with this note: Table 1 hexapeptides, cells printed in nM; read-out: IC50.
By IC50 is commonly meant the midpoint of a concentration-inhibition curve. As to `CC(=O)N[C@@H](CC(=O)O)C(=O)N[C@@H](CCC(=O)O)C(=O)N[C@H](C(=O)N[C@@H](CCC(=O)O)C(=O)N[C@@H](CC1CCCCC1)C(=O)NC(C=O)CC(F)F)C(c1ccccc1)c1ccccc1` (single isomer, unassigned) [Compound 1c (L)], the half-inhibitory concentration (IC50) was 0.5 nM.

Consider `CC(=O)N[C@@H](CC(=O)O)C(=O)N[C@@H](CCC(=O)O)C(=O)N[C@H](C(=O)N[C@@H](CCC(=O)O)C(=O)N[C@@H](CC1CCCCC1)C(=O)NC(CC(F)F)C(=O)C(=O)O)C(c1ccccc1)c1ccccc1` (stereo partly drawn) [Compound 1d] (Ac-DE[Dip]E[Cha]-{ξAbu(4,4-F2)ψ(COCO)}), for which the IC50 stood at 0.4 nM.

Staying with this assay, now noted: Table 1 hexapeptides, cells printed in μM; read-out: IC50.
Take `CC(=O)N[C@@H](CC(=O)O)C(=O)N[C@@H](CCC(=O)O)C(=O)N[C@H](C(=O)N[C@@H](CCC(=O)O)C(=O)N[C@@H](CC1CCCCC1)C(=O)NC(CC(F)F)C(=O)c1nccs1)C(c1ccccc1)c1ccccc1` (stereo partly drawn) [Compound 1k] (Ac-DE[Dip]E[Cha]-X7): the IC50 worked out at 1000 nM.

On to `CC(=O)N[C@@H](CC(=O)O)C(=O)N[C@@H](CCC(=O)O)C(=O)N[C@H](C(=O)N[C@@H](CCC(=O)O)C(=O)N[C@@H](CC1CCCCC1)C(=O)NC(CC(=O)O)CC(F)F)C(c1ccccc1)c1ccccc1` (stereo partly drawn) [Compound 1h] (Ac-DE[Dip]E[Cha]-X9), for which the IC50 turned out to be 3000 nM.

The same assay, now with this note: Table 2 tetrapeptides and tripeptides; read-out: IC50.
Consider `CC(C)CC[C@H](NC(=O)OC(C)(C)C)C(=O)N[C@@H](CC(C)C)C(=O)NC(CC(F)F)C(=O)C(=O)O` (stereo partly drawn) [Compound 5q], for which the pIC50 was 5.80.

For `CC(C)(C)OC(=O)N[C@@H](CCC(=O)O)C(=O)N[C@@H](CC(F)F)C(=O)NC(CC(F)F)C(=O)C(=O)O` (stereo partly drawn) [Compound 5o], the pIC50 is 6.52.

As for `CCC(C)[C@H](NC(=O)OCc1ccccc1)C(=O)N[C@@H](Cc1ccccc1)C(=O)NC(CC(F)F)C(=O)C(=O)O` (stereo partly drawn) [Compound 3f], the negative-log IC50 (pIC50) is 5.52.

In the case of `CCC[C@H](NC(=O)OC(C)(C)C)C(=O)N[C@@H](CC(C)C)C(=O)NC(CC(F)F)C(=O)C(=O)O` (stereo partly drawn) [Compound 5h], the pIC50 is 5.82.

Regarding `CC(C)C[C@H](NC(=O)[C@@H](NC(=O)OC(C)(C)C)C(C)(C)C)C(=O)NC(CC(F)F)C(=O)C(=O)O` (stereo partly drawn) [Compound 5n], the negative logarithm of the IC50 (pIC50) is 6.14.

In the case of `CC(C)C[C@H](NC(=O)[C@H](C/C=C/c1ccccc1)NC(=O)OC(C)(C)C)C(=O)NC(CC(F)F)C(=O)C(=O)O` (stereo partly drawn) [Compound 5p], the pIC50 was 5.62.

For `CCC(C)[C@H](NC(=O)OCc1ccc(C(=O)O)cc1)C(=O)N[C@@H](CC(C)C)C(=O)NC(CC(F)F)C(=O)C(=O)O` (stereo partly drawn) [Compound 4d], the negative-log IC50 (pIC50) is 6.36.

With `CCCC[C@H](NC(=O)OC(C)(C)C)C(=O)N[C@@H](CC(C)C)C(=O)NC(CC(F)F)C(=O)C(=O)O` (stereo partly drawn) [Compound 5g], the negative-log IC50 (pIC50) is 5.92.

Turning to `CC(C)C[C@H](NC(=O)OC(C)(C)C)C(=O)N[C@@H](CC(C)C)C(=O)NC(CC(F)F)C(=O)C(=O)O` (stereo partly drawn) [Compound 5b], the negative-log IC50 (pIC50) is 5.92.

As for `CC(C)C[C@H](NC(=O)[C@@H](NC(=O)OC(C)(C)C)C1CCCC1)C(=O)NC(CC(F)F)C(=O)C(=O)O` (stereo partly drawn) [Compound 5u], the pIC50 is 6.40.

For the compound `CCC(C)[C@H](NC(=O)OCC1c2ccccc2-c2ccccc21)C(=O)N[C@@H](CC(C)C)C(=O)NC(CC(F)F)C(=O)C(=O)O` (stereo partly drawn) [Compound 4e], the negative logarithm of the IC50 (pIC50) was 5.11.

Take `CC(C)C[C@H](NC(=O)[C@H](C)NC(=O)OC(C)(C)C)C(=O)NC(CC(F)F)C(=O)C(=O)O` (stereo partly drawn) [Compound 5f]: the pIC50 is 5.05.

For the compound `CC[C@@H](C)[C@H](NC(=O)OC(C)(C)C)C(=O)N[C@@H](CC(C)C)C(=O)NC(CC(F)F)C(=O)C(=O)O` (stereo partly drawn) [Compound 5a], the pIC50 is 6.15.

The same assay, now with this note: Table 3 capped dipeptide keto acids; read-out: IC50.
On to `CC(C)C[C@H](NC(=O)[C@H](O)c1ccccc1Cl)C(=O)NC(CC(F)F)C(=O)C(=O)O` (mixture of isomers) [Compound 8r], for which the pIC50 is 4.09.

For the compound `CC(C)C[C@H](NC(=O)CC(C)(C)CC(=O)O)C(=O)NC(CC(F)F)C(=O)C(=O)O` (mixture of isomers) [Compound 7e], the negative-log IC50 (pIC50) is 5.40.

As to `CC(C)C[C@H](NC(=O)Cc1ccccc1CC(=O)O)C(=O)NC(CC(F)F)C(=O)C(=O)O` (single isomer, unassigned) [Compound 8b], the negative logarithm of the IC50 (pIC50) is 5.10.

Take `CC(C)C[C@H](NC(=O)CC(CC(=O)O)c1ccc(Cl)cc1)C(=O)NC(CC(F)F)C(=O)C(=O)O` (mixture of isomers) [Compound 7k]: the pIC50 was 4.46.

With `CC(C)C[C@H](NC(=O)[C@H](O)c1cccs1)C(=O)NC(CC(F)F)C(=O)C(=O)O` (single isomer, unassigned) [Compound 8s], the pIC50 was 4.74.

As for `COC(=O)CC1(CC(=O)N[C@@H](CC(C)C)C(=O)NC(CC(F)F)C(=O)C(=O)O)CCCC1` (mixture of isomers) [Compound 7m], the negative logarithm of the IC50 (pIC50) is 4.07.

`CC(C)C[C@H](NC(=O)C(Oc1cccc(C(=O)O)c1)c1ccccc1)C(=O)NC(CC(F)F)C(=O)C(=O)O` (single isomer, unassigned) [Compound 8h]: the pIC50 was 5.22.

For `CC(C)C[C@H](NC(=O)C1(CCC(=O)O)CCCC1)C(=O)NC(CC(F)F)C(=O)C(=O)O` (mixture of isomers) [Compound 7o], the negative logarithm of the IC50 (pIC50) was 4.66.

For `CC(C)C[C@H](NC(=O)C1CCCCC1C(=O)O)C(=O)NC(CC(F)F)C(=O)C(=O)O` (single isomer, unassigned) [Compound 8a], the negative-log IC50 (pIC50) is 4.49.

`CC(C)C[C@H](NC(=O)COCC(=O)O)C(=O)NC(CC(F)F)C(=O)C(=O)O` (mixture of isomers) [Compound 7h]: the pIC50 was 4.49.

Still in this assay, the particulars now being: Table 4 indoline keto acids and related; read-out: IC50.
Regarding `CC(C)C[C@H](NC(=O)c1[nH]c2ccccc2c1OC(C(=O)O)c1cccc(Cl)c1)C(=O)NC(CC(F)F)C(=O)C(=O)O` (single isomer, unassigned) [Compound 14], the negative-log IC50 (pIC50) is 5.00.

In the case of `COc1cccc(CC2(C(=O)N[C@@H](CC(C)C)C(=O)NC(CC(F)F)C(=O)C(=O)O)Cc3ccccc3N2)c1` (mixture of isomers) [Compound 9s], the pIC50 is 4.42.

On to `CC(C)C[C@H](NC(=O)C1(CC(C)C)Cc2ccccc2N1)C(=O)NC(CC(F)F)C(=O)C(=O)O` (mixture of isomers) [Compound 9d], for which the negative-log IC50 (pIC50) is 4.80.

As to `CC(C)C[C@H](NC(=O)C1Cc2ccc(OCC3CC3)cc2N1)C(=O)NC(CC(F)F)C(=O)C(=O)O` (mixture of isomers) [Compound 10d], the pIC50 is 4.18.

Consider `CC(C)CC(NC(=O)C1(Cc2cccc(C#N)c2)Cc2ccccc2N1)C(=O)NC(CC(F)F)C(=O)C(=O)O` (mixture of isomers) [Compound 9t], for which the pIC50 was 5.05.

Consider `CC(C)C[C@H](NC(=O)C1(C(C)C)Cc2ccccc2N1)C(=O)NC(CC(F)F)C(=O)C(=O)O` (mixture of isomers) [Compound 9c], for which the pIC50 is 4.04.

Take `CC(C)=CCC1(C(=O)NC(CC(C)C)C(=O)NC(CC(F)F)C(=O)C(=O)O)Cc2ccccc2N1` (mixture of isomers) [Compound 9e]: the negative logarithm of the IC50 (pIC50) is 4.16.

Consider `CC(C)C[C@H](NC(=O)C1(Cc2ccccc2Cl)Cc2ccccc2N1)C(=O)NC(CC(F)F)C(=O)C(=O)O` (single isomer, unassigned) [Compound 9q], for which the negative-log IC50 (pIC50) was 5.30.

Turning to `CCCCC1(C(=O)NC(CC(C)C)C(=O)NC(CC(F)F)C(=O)C(=O)O)Cc2ccccc2N1` (mixture of isomers) [Compound 9b], the pIC50 was 4.06.

Turning to `CC(C)C[C@H](NC(=O)C1(Cc2cccc(Oc3ccccc3)c2)Cc2ccccc2N1)C(=O)NC(CC(F)F)C(=O)C(=O)O` (mixture of isomers) [Compound 9v], the pIC50 was 4.62.

For `COc1ccc2c(c1)NC(CC(C)C)(C(=O)N[C@@H](CC(C)C)C(=O)NC(CC(F)F)C(=O)C(=O)O)C2` (single isomer, unassigned) [Compound 10b], the negative-log IC50 (pIC50) was 4.62.
